Measurements: US9757350B2, “Small molecule inhibitors of replication protein A that also act synergistically with cisplatin” (Indiana University Research and Technology Corp., priority 2010, dated 2017)

Assays:
SpPot1(DBD) = molecular target: T1, SpPot1(DBD) (Schizosaccharomyces pombe, UniProt O13988); test: SpPot1(DBD) ssDNA binding; conditions: protein pre-incubated with SMI
T1 construct: the Schizosaccharomyces pombe Pot1(DBD) domain (11) were studied
T1 sequence (O13988 1-389 limits assumed): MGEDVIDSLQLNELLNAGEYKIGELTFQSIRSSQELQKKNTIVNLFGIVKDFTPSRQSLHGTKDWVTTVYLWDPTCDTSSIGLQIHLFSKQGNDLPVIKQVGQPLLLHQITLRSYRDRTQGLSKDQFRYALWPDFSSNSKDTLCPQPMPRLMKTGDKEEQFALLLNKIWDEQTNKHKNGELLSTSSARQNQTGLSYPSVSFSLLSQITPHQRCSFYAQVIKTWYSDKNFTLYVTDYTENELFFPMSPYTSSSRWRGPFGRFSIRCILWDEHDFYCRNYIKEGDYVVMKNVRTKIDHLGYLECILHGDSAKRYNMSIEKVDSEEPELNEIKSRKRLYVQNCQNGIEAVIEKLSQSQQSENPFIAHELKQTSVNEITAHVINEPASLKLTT
Protocol: In order to study the specificity of the CheSS19, and MCI13E/F compounds, their effects on two ssDNA binding proteins which use OB-folds for recognition and binding of ssDNA, E. coli SSB (6) and the Schizosaccharomyces pombe Pot1(DBD) domain (11) were studied. The EcSSB protein is a non-sequence-specific ssDNA binding protein, whereas the SpPot1(DBD) protein is a telomere-specific, ssDNA binding protein. In these experiments, protein was pre-incubated with the SMIs, as was done for the RPA experiments, prior to addition of radiolabeled ssDNA to the reactions.

A549 cells = test: Combination index study with cisplatin (Chou-Talalay), crystal violet; format: cell-based; conditions: for Interaction with cisplatin, sequential treatment: A549, cisplatin 24 h, then SMI 24 h
Protocol: Synergy with cisplatin—Analyses thus far indicate that inhibition of RPA is effective in eliciting effects consistent with inhibition of RPAs role in cell cycle progression and DNA replication. To assess if SMI treatment impacts RPAs role in DNA repair, how MCI13E or MCI13F treatment influences cellular sensitivity to cisplatin was assessed. […] Cisplatin-induced DNA damage is primarily repaired via NER and homologous recombination. […] Initially, a concurrent approach, similar to that described for another RPA SMI, TDRL-505 (1) was used. Briefly, A549 cells were treated for 48 hours with MCI13E, cisplatin, or combination treatment, with viability determined via crystal violet staining. […] Next, a sequential treatment protocol was used, first treating cells with cisplatin for 24 hours, then adding the SMI and incubating for an additional 24 hours.
Combination Index—Studies Combination index studies, performed with combination SMI and cisplatin treatment, were used to determine the level of synergy or antagonism between the two compounds. Referring now to FIG. 19A, a schematic illustrating Sequential treatment with cisplatin and MCI13E, and FIG. 19B, a schematic illustrating concurrent treatment with cisplatin and MCI13E. Cells received the same concentration of cisplatin or MCI13E but the time the cells were treated with cisplatin varied whereas treatment time with MCI remained the same between the two treatment methods.
Briefly, A549 cells were plated as described above in 24-well dishes (5×10^4 cells per well) and treated either concurrently or sequentially with single agent cisplatin or MCI treatment or with combination treatments. […] Following 48 hours of total treatment cells were analyzed for viability using the crystal violet assay described above and combination index values were calculated based on the Chou and Talalay method (15) as we have previously described (1,23).

p21 = test: Quantitative real-time PCR of p21 mRNA; format: cell-based; conditions: A549, versus untreated control
Protocol: Real-Time PCR—A549 cells were plated in 10 cm dishes at 1.5×10^6, allowed to adhere, and treated for 24-48 hours with cisplatin or SMIs (5 μM). Referring now to FIG. 16B, Western blot of cells treated sequentially. For sequential treatment, A549 cells were exposed to cisplatin for 24 hours followed by the addition of SMIs for another 24 hours as above. Referring now to FIG. 16A, A549 cells were treated sequentially or concurrently with cisplatin (5 μM) and MCI13E or MCI13F for 24 total hours. Lysates were probed for p53-ser15-phosphorylation or phosphorylated-ATM. GAPDH was probed as a loading control. Concurrently treated cells were incubated simultaneously with both cisplatin and MCIs for 24 hours. RNA was extracted using RNeasy minikit (Qiagen, Germantown, Md.) per manufacturer's protocol. cDNA was generated using Applied Biosystem's (ABI) High Capacity RNA-to-cDNA kit. Validated gene primer/probe sets, also from ABI, were used for Quantitative Real Time-PCR. ABI's ΔΔCT Relative Quantification methodology was used for the analyses (applied Biosystems). Data were normalized to the housekeeping gene GAPDH and calibrated to the mock treated samples. Results presented are the average of two separate cell treatments/RNA isolations with duplicate Taqman Assays per RNA sample set.
Referring now to FIG. 15A. Plot of Quantitative Real Time PCR analyses of mRNA expression changes of A549 cells treated with MCI13E, MCI13F and Cisplatin. Data represents the average of four separate Q-RT PCR Assays. Genes of interest were normalized to GAPDH transcript levels, and are presented as fold changes relative to untreated cell samples. Cisplatin treatment increases transcription of DDB2 (A). Referring now to FIG. 15B. Bar graph of P21/GAPDH measured in cells subjected to different treatment schemes. Referring now to FIG. 15C. Bar graph of XPC/GAPDH measured under different treatment regimes XPC Concurrent MCI/Cisplatin treated cells show a decrease in gene transcription when compared to cells treated with Cisplatin alone (24 hour).

A549 cell lines = test: Combination with ionizing radiation, A549; format: cell-based; conditions: A549, data not shown

| SMILES | Effect on SpPot1(DBD) ssDNA binding (SpPot1(DBD)) | Interaction with cisplatin, concurrent treatment (A549 cells; A549, 48 hours together) | Interaction with cisplatin, sequential treatment (A549 cells) | p21 mRNA expression, single agent (p21) | Cell death in combination with ionizing radiation (A549 cell lines) |
| --- | --- | --- | --- | --- | --- |
| CC1(C)C2CCC1(C)C(OC(=O)CBr)C2 (racemic) [MCI13E, (+/−)-Isobornyl bromoacetate] | no significant inhibition | antagonistic effect | synergizing with cisplatin at higher dosing concentrations | only slightly increases the expression level of p21 | at best, an additive increase in cell death |
| CC1(C)C2CCC1(C)C(OC(=O)CI)C2 (racemic) [MCI13F, (+/−)-Isobornyl iodoacetate] | no significant inhibition |  | synergy with cisplatin at all tested concentrations | only slightly increases the expression level of p21 | at best, an additive increase in cell death |
